# Activity calls are given as the source filed them. The calls are words filed in the database; no cut-off is given here.
# Experiments:
# Assay type in all cases: functional
# Rattus norvegicus [1] = assay: Anti-inflammatory activity in Rattus norvegicus Wistar albino (rat) assessed as inhibition of carrageenan-induced paw edema at 50 mg/kg, po administered for 30 min prior to carrageenan challenge measured at 4 hr relative to control
# Rattus norvegicus [2] = assay: Anti-inflammatory activity in Rattus norvegicus Wistar albino (rat) assessed as inhibition of carrageenan-induced paw edema at 50 mg/kg, po administered for 30 min prior to carrageenan challenge measured at 3 hr relative to control
# Rattus norvegicus [3] = assay: Anti-inflammatory activity in Rattus norvegicus Wistar albino (rat) assessed as inhibition of carrageenan-induced paw edema at 50 mg/kg, po administered for 30 min prior to carrageenan challenge measured at 2 hr relative to control
# Rattus norvegicus [4] = assay: Anti-inflammatory activity in Rattus norvegicus Wistar albino (rat) assessed as inhibition of carrageenan-induced paw edema at 50 mg/kg, po administered for 30 min prior to carrageenan challenge measured at 1 hr relative to control
# Rattus norvegicus [5] = assay: Anti-inflammatory activity in Rattus norvegicus Wistar albino (rat) assessed as inhibition of carrageenan-induced paw edema at 10 mg/kg, ip administered for 30 min prior to carrageenan challenge measured at 4 hr relative to control; settings: route intraperitoneal
# Rattus norvegicus [6] = assay: Anti-inflammatory activity in Rattus norvegicus Wistar albino (rat) assessed as inhibition of carrageenan-induced paw edema at 10 mg/kg, ip administered for 30 min prior to carrageenan challenge measured at 3 hr relative to control; settings: route intraperitoneal
# Rattus norvegicus [7] = assay: Anti-inflammatory activity in Rattus norvegicus Wistar albino (rat) assessed as inhibition of carrageenan-induced paw edema at 10 mg/kg, ip administered for 30 min prior to carrageenan challenge measured at 2 hr relative to control; settings: route intraperitoneal
# Rattus norvegicus [8] = assay: Anti-inflammatory activity in Rattus norvegicus Wistar albino (rat) assessed as inhibition of carrageenan-induced paw edema at 10 mg/kg, ip administered for 30 min prior to carrageenan challenge measured at 1 hr relative to control; settings: route intraperitoneal
Structure (SMILES),inhibition in vivo at 50 mg/kg (Rattus norvegicus [1]),inhibition in vivo at 50 mg/kg (Rattus norvegicus [2]),inhibition in vivo at 50 mg/kg (Rattus norvegicus [3]),inhibition in vivo at 50 mg/kg (Rattus norvegicus [4]),further results
NS(=O)(=O)c1ccc2nc(-n3nc(C(F)(F)F)cc3-c3ccccc3)sc2c1,17%,54%,48%,32%,–
Cc1ccc(-c2cc(C(F)(F)F)nn2-c2nc3ccc(S(N)(=O)=O)cc3s2)cc1,52%,56%,38%,35%,–
NS(=O)(=O)c1ccc2nc(-n3nc(C(F)(F)F)cc3-c3ccc(Cl)cc3)sc2c1,42%,61%,42%,44%,–
Cc1ccc(-c2cc(C(F)(F)F)n(-c3nc4ccc(S(N)(=O)=O)cc4s3)n2)cc1,–,–,–,–,inhibition (Rattus norvegicus [1]): inactive; inhibition (Rattus norvegicus [2]): inactive; inhibition (Rattus norvegicus [3]): inactive; inhibition (Rattus norvegicus [4]): inactive
NS(=O)(=O)c1ccc2nc(-n3nc(C(F)(F)F)cc3-c3cccs3)sc2c1,15%,49%,26%,5%,–
NS(=O)(=O)c1ccc2nc(-n3nc(C(F)(F)F)cc3-c3ccc(Br)cc3)sc2c1,43%,60%,56%,45%,–
COc1ccc2c(c1)c(CC(=O)O)c(C)n2C(=O)c1ccc(Cl)cc1 [INDOMETHACIN],–,–,–,–,inhibition in vivo at 10 mg/kg (Rattus norvegicus [5]): 75%; inhibition in vivo at 10 mg/kg (Rattus norvegicus [6]): 78%; inhibition in vivo at 10 mg/kg (Rattus norvegicus [7]): 78%; inhibition in vivo at 10 mg/kg (Rattus norvegicus [8]): 70%
COc1ccc(-c2cc(C(F)(F)F)nn2-c2nc3ccc(S(N)(=O)=O)cc3s2)cc1,53%,60%,31%,42%,–
NS(=O)(=O)c1ccc2nc(-n3nc(C(F)(F)F)cc3-c3ccc4ccccc4c3)sc2c1,20%,53%,27%,30%,–
NS(=O)(=O)c1ccc2nc(-n3nc(C(F)(F)F)cc3-c3ccc(F)cc3)sc2c1,50%,64%,48%,54%,–
NS(=O)(=O)c1ccc2nc(-n3nc(C(F)(F)F)cc3-c3ccco3)sc2c1,54%,61%,46%,27%,–

# Source: ChEMBL document CHEMBL3046923, “Heteroaromatic analogues of 1,5-diarylpyrazole class as anti-inflammatory agents” (2012)
